Laboratory results reported in patent publication US12146134B2, “Microfluidic devices and methods of use in the formation and control of nanoreactors” (Bio-Rad Laboratories, Inc., priority 2006, dated 2024).
{Fluorescein} = fluorescein label; {Biotin} = biotin label

B1: 101: 5′ Biotin-labeled oligonucleotide, SEQ ID NO: 1 (nucleic acid)
DNA: ATCCGCCCCAGCAGCTGCCAGGCACAGCCCCTAAACTCCTGATTTATGCTGCATCCATTTTGC
modifications: DNA, 5' {Biotin}, backbone not given here

What was measured:
Steptaviden = Steptaviden (Streptomyces avidinii, UniProt P22629); assay: fluorescence polarization measurements in droplets inside the microfluidic device (biotin/streptavidin binding); settings: droplets 65 to 75 um, 10 mM Borate pH 9, data normalized so P(Fluorescein)=0.0
From the text: In addition to molecular beacons and Taqman, the devices of the present invention can be used to cany out fluorescence polarization as described herein. Most SNP assays can be adapted for both mini-sequencing and gene expression analysis. A series of fluorescence polarization measurements have been made inside a microfluidic device according to the present invention while looking at droplets containing Fluorescein, Fluorescein bound to biotin, and Fluorescein bound to biotin+Steptaviden. The fluorescence signal was split into two orthogonal polarizations: one parallel to the laser excitation polarization, and one perpendicular to the polarization. These signal were collected and analyzed to determine the change in polarization of the fluorescence for each of these binding conditions.
The Polarization is calculated from:
[formula] Where V=fluorescence signal polarized parallel to laser excitation polarization, and H=fluorescence signal polarized perpendicular.
The fluorescence station was modified to include cleanup polarizer for the laser and a polarizing beamsplitter with cleanup polarizers for collection. The two resulting fluorescence channels collect light with orthogonal polarizations (“Vertical” is parallel to the laser polarization, “Horizontal” is perpendicular to the laser polarization). […]

Oligonucleotide 102 = assay: measurement of DNA hybridization using fluorescence polarization (FP) on the microfluidic device; assay type: binding; settings: addition of oligonucleotide to the fluorescein-labeled 102
From the text: (A) FP can be used to measure the binding of 2 DNA molecules on the microfluidic device. (B) Oligonucleotide 102 is complement to both 101 and 103. […] Oligonucleotides; #101:[NT] ID NO: 1); #102: [NT] ID NO: 2); #103: [NT] NO: 3).

Sequence of Steptaviden (P22629 25-183): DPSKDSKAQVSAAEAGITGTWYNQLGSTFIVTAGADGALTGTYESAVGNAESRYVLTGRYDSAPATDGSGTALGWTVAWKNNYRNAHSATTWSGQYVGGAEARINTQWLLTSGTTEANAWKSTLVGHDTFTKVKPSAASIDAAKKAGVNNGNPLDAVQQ

| Molecule | Polarization (mean of histogram grouping) (Steptaviden) [mP] | shift of mP value of labeled 102, indicative of binding (Oligonucleotide 102) |
| --- | --- | --- |
| Biotinylated Fluorescein [Biotinalated Fluorescein] | 18.4 |  |
| 103: 5′ Fluorescein-labeled oligonucleotide, SEQ ID NO: 3 (DNA CTAAACTCCTGATTTATGCTGCATCCATTTTGC; DNA, 5' {Fluorescein}, backbone not given here) [compound 103] |  | shifts the mP value |
| B1 |  | shifts the mP value |
